Patent US11649242B2, “Pyrrolopyrrole compositions as pyruvate kinase (PKR) activators” (FORMA Therapeutics, Inc., priority 2017, dated 2023)

Columns and labels:
Type in all cases: biochemical
[1] = target: PKR(G332S) (Homo sapiens, UniProt P30613, G332S); assay: Luminescence Assay Protocol (Kinase Glo Plus), PKR(G332S/with FBP); conditions: PKRG332S, with FBP; for activation at 1.54 µM: compound 1.54 μM, read-out: C - AC50 LUM KGP FBP % Fold @ 1.54 μM mean; for AC50: gmean, read-out: A - AC50 LUM KGP FBP AC50 μM gmean; for Emax: highest % fold increase at any concentration, read-out: B - AC50 LUM KGP FBP MAX % FOLD mean
Chain of PKR(G332S) (P30613 whole entry G332S): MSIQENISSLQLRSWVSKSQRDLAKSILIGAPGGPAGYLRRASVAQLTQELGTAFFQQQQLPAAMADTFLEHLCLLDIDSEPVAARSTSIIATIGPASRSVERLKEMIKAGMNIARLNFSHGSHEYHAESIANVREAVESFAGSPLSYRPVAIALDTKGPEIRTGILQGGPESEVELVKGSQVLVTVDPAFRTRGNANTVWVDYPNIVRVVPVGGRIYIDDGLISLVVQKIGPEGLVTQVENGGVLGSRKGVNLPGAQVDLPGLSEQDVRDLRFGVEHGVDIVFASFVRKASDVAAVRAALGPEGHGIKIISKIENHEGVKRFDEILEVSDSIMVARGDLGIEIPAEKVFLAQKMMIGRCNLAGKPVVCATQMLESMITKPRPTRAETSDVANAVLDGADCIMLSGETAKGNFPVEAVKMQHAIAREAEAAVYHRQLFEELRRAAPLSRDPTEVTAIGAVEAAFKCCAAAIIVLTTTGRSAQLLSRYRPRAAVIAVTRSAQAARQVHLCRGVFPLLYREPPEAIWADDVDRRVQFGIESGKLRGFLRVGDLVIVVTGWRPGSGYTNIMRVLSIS
Protocol: (§1) Example 47: PKR(Wt/without FBP), PKR(G332S/with FBP), PKR(R510Q/without FBP)
(§2) The phosphorylation of Adenosine-5′-diphosphate (ADP) by various mutants of PKR was determined by the Kinase Glo Plus Assay (Promega) in the presence or absence of FBP [D-Fructose-1,6-diphosphate; BOC Sciences, CAS: 81028-91-3] as follows. Unless otherwise indicated, all reagents were purchased from Sigma-Aldrich. All reagents were prepared in buffer containing 50 mM Tris-HCl, 100 mM KCl, 5 mM MgCl2, and 0.01% Triton X100, 0.03% BSA, and 1 mM DTT. Enzyme and PEP [Phospho(enol) pyruvic acid] were added at 2× to all wells of an assay-ready plate containing serial dilutions of test compounds or DMSO vehicle. Final enzyme concentrations for PKR(wt), PKR(R510Q), and PKR(G332S) were 0.8 nM, 0.8 nM, and 10 nM respectively. Final PEP concentration was 100 μM. The Enzyme/PEP mixture was incubated with compounds for 30 minutes at RT before the assay was initiated with the addition of 2×ADP [Adenosine-5′-diphosphate] and KinaseGloPlus. Final concentration of ADP was 100 μM. […] For assays containing FBP, that reagent is added at 30 μM upon reaction initiation. Reactions were allowed to progress for 45 minutes at RT until luminescence was recorded by the BMG PHERAstar FS Multilabel Reader. All compounds were tested in triplicate at concentrations ranging from 42.5 μM to 2.2 nM in 0.83% DMSO.
(§3) Luminescence values were converted to % Fold increase by normalizing to the average of the DMSO control and multiplying by 100. Max, min, slope and AC50 were determined by the standard four parameter fit algorithm of ActivityBase XE Runner. Compounds were evaluated with three parameters—AC50, MAX % Fold, and % Fold@1.54 μM (FIG. 1). The AC50 value for a compound is the concentration […] corresponding to the midway between the maximum and minimum values of the four parameter logistic curve fit (i.e., at which the % fold increase along the four parameter logistic curve fit is halfway between MAX % Fold and MIN % Fold (% Fold Midpoint)), MAX % Fold is the highest fold increase observed at any concentration of compound, and % Fold@1.54 μM is the fold increase at a compound concentration of 1.54 μM. The parameter % Fold@1.54 μM was selected to capture elements of both the AC50 and MAX % Fold and to provide a ranking based on both potency and effect. The compound concentration of 1.54 μM was chosen as one that can optimally differentiate the set of compounds based on the range of activities observed.
(§4) As set forth in Tables 6 and 7 below, AC50 values (columns A, D, G) are defined as follows: ≤0.1 μM (+++); >0.1 μM and ≤1.0 μM (++); >1.0 μM and ≤40 μM (+); >40 μM (0). Max % FOLD values (columns B, E, H) are defined as follows: ≤75% (+); >75% and ≤250% (++); >250% and ≤500% (+++). % Fold@1.54 μM values (columns C, F, I) are defined as follows: ≤75% (+); >75% and ≤250% (++); >250% and ≤500% (+++).

[2] = target: PKR(R510Q) (Homo sapiens, UniProt P30613, R510Q); assay: Luminescence Assay Protocol (Kinase Glo Plus), PKR(R510Q/without FBP); conditions: PKRR510Q, without FBP; for activation at 1.54 µM: compound 1.54 μM, read-out: F - AC50 LUM KGP woFBP % Fold @ 1.54 μM mean; for AC50: gmean, read-out: D - AC50 LUM KGP woFBP AC50 μM gmean; for Emax: read-out: E - AC50 LUM KGP woFBP MAX % FOLD mean
Chain of PKR(R510Q) (P30613 whole entry R510Q): as the sequence (P30613 whole entry G332S) above, with S332G, R510Q counted along it
Protocol: as §1, §2, §3, §4

[3] = target: PKR(wt) (Homo sapiens, UniProt P30613); assay: Luminescence Assay Protocol (Kinase Glo Plus), PKR(Wt/without FBP); conditions: without FBP; for activation at 1.54 µM: compound 1.54 μM, read-out: I - AC50 LUM KGP woFBP % Fold @ 1.54 μM mean; for AC50: gmean, read-out: G - AC50 LUM KGP woFBP AC50 μM gmean; for Emax: highest % fold increase at any concentration, read-out: H - AC50 LUM KGP woFBP MAX % FOLD mean
Chain of PKR(wt) (P30613 whole entry): as the sequence (P30613 whole entry G332S) above, with S332G counted along it
Protocol: as §1, §2, §3, §4

[4] = highest % fold increase at any concentration

Which results are given for `CN1CCOc2ccc(S(=O)(=O)N3CC4=C(CN(C(=O)C5CCOC5)C4)C3)cc21` (stereo not drawn) [Example 47, (5-((4-methyl-3,4-dihydro-2H-benzo[b][1,4]oxazin-6-yl)sulfonyl)-3,4,5,6-tetrahydropyrrolo[3,4-c]pyrrol-2(1H)-yl)(tetrahydrofuran-3-yl)methanone]?
activation at 1.54 µM [1]: 75 to 250%; AC50 [1]: > 40 µM; Emax [1]: 75 to 250%; activation at 1.54 µM [2]: 75 to 250%; AC50 [2]: 1 to 40 µM; Emax [2, 4]: 250 to 500%; activation at 1.54 µM [3]: 75 to 250%; AC50 [3]: 0.1 to 1 µM; Emax [3]: 75 to 250%

What does the source list for `COCC1(C(=O)N2CC3=C(C2)CN(S(=O)(=O)c2ccc4c(c2)NCCO4)C3)CC1` [Example 36, (5-((3,4-dihydro-2H-benzo[b][1,4]oxazin-6-yl)sulfonyl)-3,4,5,6-tetrahydropyrrolo[3,4-c]pyrrol-2(1H)-yl)(1-(methoxymethyl)cyclopropyl)methanone]?
activation at 1.54 µM [1]: 75 to 250%; AC50 [1]: > 40 µM; Emax [1]: 75 to 250%; activation at 1.54 µM [2]: 75 to 250%; AC50 [2]: 1 to 40 µM; Emax [2, 4]: 75 to 250%; activation at 1.54 µM [3]: 75 to 250%; AC50 [3]: 0.1 to 1 µM; Emax [3]: 75 to 250%

With `O=C(C(CO)c1ccccn1)N1CC2=C(C1)CN(S(=O)(=O)c1ccc(OC(F)F)cc1)C2` (single isomer, unassigned) [Example 41, (S or R)-1-(5-((4-(difluoromethoxy)phenyl)sulfonyl)-3,4,5,6-tetrahydropyrrolo[3,4-c]pyrrol-2(1H)-yl)-3-hydroxy-2-(pyridin-2-yl)propan-1-one] as the molecule, how does the activation at 1.54 µM [1] read?
The activation at 1.54 µM was 75 to 250%.

What about the AC50 [1] of the same molecule?
The AC50 was no more than 0.1 µM.

What about the Emax [1] of the same molecule?
The Emax was 75 to 250%.

And the activation at 1.54 µM [2]?
The activation at 1.54 µM was 250 to 500%.

And the AC50 [2]?
The AC50 was no more than 0.1 µM.

And the Emax [2, 4]?
The Emax was 250 to 500%.

What about the activation at 1.54 µM [3] of the same molecule?
The activation at 1.54 µM was 250 to 500%.

And the AC50 [3]?
The AC50 was no more than 0.1 µM.

What about the Emax [3] of the same molecule?
Its Emax is 250 to 500%.

Which results are given for `O=C(CCO)N1CC2=C(C1)CN(S(=O)(=O)c1ccc(OC(F)F)cc1)C2` [Example 54, 1-(5-((4-(difluoromethoxy)phenyl)sulfonyl)-3,4,5,6-tetrahydropyrrolo[3,4-c]pyrrol-2(1H)-yl)-3-hydroxypropan-1-one]?
activation at 1.54 µM [2]: 75 to 250%; AC50 [2]: 1 to 40 µM; Emax [2, 4]: 250 to 500%; activation at 1.54 µM [3]: 75 to 250%; AC50 [3]: 1 to 40 µM; Emax [3]: 250 to 500%

Which AC50 [1] does the source give for `CC(C)(CO)C(=O)N1CC2=C(C1)CN(S(=O)(=O)c1ccc(OC(F)F)cc1)C2` [Example 7, 1-(5-((4-(difluoromethoxy)phenyl)sulfonyl)-3,4,5,6-tetrahydropyrrolo[3,4-c]pyrrol-2(1H)-yl)-3-hydroxy-2,2-dimethylpropan-1-one] here?
Its AC50 is no more than 0.1 µM.

What about the AC50 [2] of the same molecule?
The AC50 was 0.1 to 1 µM.

What about the activation at 1.54 µM [3] of the same molecule?
The activation at 1.54 µM was 75 to 250%.

What about the AC50 [3] of the same molecule?
The AC50 was 0.1 to 1 µM.

What about the Emax [3] of the same molecule?
The Emax was 75 to 250%.

Which results are given for `O=C([C@H](CO)c1ccccc1)N1CC2=C(C1)CN(S(=O)(=O)c1ccccn1)C2` [Example 51, (2S)-3-hydroxy-2-phenyl-1-[5-(pyridine-2-sulfonyl)-1H,2H,3H,4H,5H,6H-pyrrolo[3,4-c]pyrrol-2-yl]propan-1-one]?
activation at 1.54 µM [1]: 75 to 250%; AC50 [1]: 0.1 to 1 µM; Emax [1]: 75 to 250%; activation at 1.54 µM [2]: 250 to 500%; AC50 [2]: ≤ 0.1 µM; Emax [2, 4]: 250 to 500%; activation at 1.54 µM [3]: 250 to 500%; AC50 [3]: ≤ 0.1 µM; Emax [3]: 250 to 500%

For `COCCC(=O)N1CC2=C(C1)CN(S(=O)(=O)c1ccc3c(c1)OCCO3)C2` [Example 57, 1-(5-((2,3-dihydrobenzo[b][1,4]dioxin-6-yl)sulfonyl)-3,4,5,6-tetrahydropyrrolo[3,4-c]pyrrol-2(1H)-yl)-3-methoxypropan-1-one], which activation at 1.54 µM [1] is on record?
Its activation at 1.54 µM is 75 to 250%.

And the AC50 [1]?
Its AC50 is no more than 0.1 µM.

What about the Emax [1] of the same molecule?
The Emax was 75 to 250%.

And the activation at 1.54 µM [2]?
The activation at 1.54 µM was 75 to 250%.

And the AC50 [2]?
The AC50 was 0.1 to 1 µM.

And the Emax [2, 4]?
Its Emax is 75 to 250%.

With `COc1ccc(S(=O)(=O)N2CC3=C(CN(C(=O)CCO)C3)C2)cc1` [Example 40, 3-hydroxy-1-(5-((4-methoxyphenyl)sulfonyl)-3,4,5,6-tetrahydropyrrolo[3,4-c]pyrrol-2(1H)-yl)propan-1-one] as the molecule, how does the activation at 1.54 µM [2] read?
The activation at 1.54 µM was 75 to 250%.

What about the AC50 [2] of the same molecule?
The AC50 was 1 to 40 µM.

What about the Emax [2, 4] of the same molecule?
Its Emax is 250 to 500%.

What does the source list for `COCCC(=O)N1CC2=C(C1)CN(S(=O)(=O)c1ccc3occc3c1)C2` [Example 58, 1-(5-(benzofuran-5-ylsulfonyl)-3,4,5,6-tetrahydropyrrolo[3,4-c]pyrrol-2(1H)-yl)-3-methoxypropan-1-one]?
activation at 1.54 µM [1]: 75 to 250%; AC50 [1]: ≤ 0.1 µM; Emax [1]: 75 to 250%; activation at 1.54 µM [2]: 75 to 250%; AC50 [2]: 0.1 to 1 µM; Emax [2, 4]: 250 to 500%

Which results are given for `O=C(C(CO)c1ccccn1)N1CC2=C(C1)CN(S(=O)(=O)c1cnc3c(c1)OCCO3)C2` (single isomer, unassigned) [Example 4, (S or R)-1-(5-((2,3-dihydro-[1,4]dioxino[2,3-b]pyridin-7-yl)sulfonyl)-3,4,5,6-tetrahydropyrrolo[3,4-c]pyrrol-2(1H)-yl)-3-hydroxy-2-(pyridin-2-yl)propan-1-one]?
activation at 1.54 µM [2]: 75 to 250%; AC50 [2]: 1 to 40 µM; E - AC50 LUM KGP woFBP MAX % FOLD mean [2, 4]: ++ (>75% and ≤250% (++)); activation at 1.54 µM [3]: 75 to 250%; AC50 [3]: 1 to 40 µM; Emax [3]: 75 to 250%

For `O=C([C@@H]1CCOC1)N1CC2=C(C1)CN(S(=O)(=O)c1ccc3occc3c1)C2` [Example 12, (R)-(5-(benzofuran-5-ylsulfonyl)-3,4,5,6-tetrahydropyrrolo[3,4-c]pyrrol-2(1H)-yl)(tetrahydrofuran-3-yl)methanone], which activation at 1.54 µM [3] is on record?
Its activation at 1.54 µM is 250 to 500%.

What about the AC50 [3] of the same molecule?
The AC50 was 0.1 to 1 µM.

What about the Emax [3] of the same molecule?
The Emax was 250 to 500%.

`O=C(C(CO)c1ccccn1)N1CC2=C(C1)CN(S(=O)(=O)c1ccc(OC(F)F)cc1)C2` (single isomer, unassigned) [Example 42, (R or S)-1-(5-((4-(difluoromethoxy)phenyl)sulfonyl)-3,4,5,6-tetrahydropyrrolo[3,4-c]pyrrol-2(1H)-yl)-3-hydroxy-2-(pyridin-2-yl)propan-1-one] was tested. Which AC50 [1] did it give?
The AC50 was no more than 0.1 µM.

Which results are given for `O=C(C(CO)c1ccccc1)N1CC2=C(C1)CN(S(=O)(=O)c1ccc3c(c1)OCCO3)C2` (stereo not drawn) [Example 18, 1-(5-((2,3-dihydrobenzo[b][1,4]dioxin-6-yl)sulfonyl)-3,4,5,6-tetrahydropyrrolo[3,4-c]pyrrol-2(1H)-yl)-3-hydroxy-2-phenylpropan-1-one]?
activation at 1.54 µM [1]: 75 to 250%; AC50 [1]: > 40 µM; Emax [1]: 75 to 250%; activation at 1.54 µM [2]: 75 to 250%; AC50 [2]: ≤ 0.1 µM; Emax [2, 4]: 75 to 250%

Which activation at 1.54 µM [1] does the source give for `O=C(C1COCCN1)N1CC2=C(C1)CN(S(=O)(=O)c1ccc3ncsc3c1)C2` (stereo not drawn) [Example 56, (5-(benzo[d]thiazol-6-ylsulfonyl)-3,4,5,6-tetrahydropyrrolo[3,4-c]pyrrol-2(1H)-yl)(morpholin-3-yl)methanone] here?
Its activation at 1.54 µM is 75 to 250%.

What about the AC50 [1] of the same molecule?
Its AC50 is greater than 40 µM.

What about the Emax [1] of the same molecule?
The Emax was 75 to 250%.

And the activation at 1.54 µM [2]?
The activation at 1.54 µM was 75 to 250%.

And the AC50 [2]?
Its AC50 is 1 to 40 µM.

And the Emax [2, 4]?
Its Emax is 75 to 250%.
